Experiments:
cAMP = test: Fluorescence response of cAMP sensors to isoproterenol in HEK 293 cells co-expressing the beta adrenergic receptor; format: cell-based, human; details: for Relative Change in Fluorescence: in response to isoproternol; for dF/F: relative fluorescence response to isoproternol
Procedure: To test the functionality of these 28 prototype sensors, each construct was co-expressed with the beta adrenergic receptor, which couples to the Gs signaling pathway when activated by isoproteronol, in HEK 293 cells, and the fluorescence measured as described below. Briefly, 96-well glass-bottom plates were coated with Poly-D-Lysine (Fisher Scientific, Pittsburgh, Pa.) and HEK 293 were seeded and cultured in EMEM (ATCC, Manassas, Va.) supplemented with 10% fetal bovine serum and Penicillin-Streptomycin at 37 […] and 30 ng of beta adrenergic receptor per well, using Lipofectamine 2000 Transfection Reagent (Life Technologies, Grand Island, N.Y.) according to the manufacturer's protocol, and incubated for 24-48 hours at 37° C. in 5% CO2.
Prior to screening transfected cells for fluorescence, he EMEM culture medium was removed and 1×DPBS added to each well. A Zeiss Axiovert S100TV inverted microscope equipped with computer controlled excitation/emission filter wheels, shutters, and a Qimaging Retiga Exi CCD camera (Surrey, BC Canada) was used to image cells at 25e A) supplemented with 10% fetal bovine serum and Penicillin-Streptomycin at 37hn filters were used to resolve the green fluorescence from the cAMP sensors. Cells were analyzed for increases or decreases in fluorescence intensity upon addition of isoproternol, DMSO, forskolin and IBMX. To analyze the image stacks, background fluorescence was defined as a region of the image that contained no cells. The average value of this region was subtracted frame by frame from the measurements of the mean pixel values of the fluorescent cells. Fluorescence intensity data was plotted and analyzed with IGOR (Wavemetrics, Oswego, Oreg.).
For transient expression and screening in an automated fluorescence plate reader, HEK 293T cells were cultured in Corning Co-Star Polystyrene 96-well plates coated with Poly-D-Lysine. HEK293T cells were plated at 35,000 cells/well in 100 μl growth medium per well without antibiotics so that the cells would be 90-95% confluent at the time of transfection (approximately 24 hours later). For each transfection (i.e. one well in a 96-well plate), 160 ng of plasmid DNA (120 ng sensor+40 ng receptor) was diluted in […] and then the mixture was replaced with fresh medium. Prior to scanning a plate on the Biotek Synergy Mx, EMEM culture medium was replaced with 250 μl of 1×DPBS per well. Plates were read at 25° C., using monochromators set to 488/20 nm excitation and 530/20 nm emission to resolve the green fluorescence from the cAMP sensor.

[1] = target: T1, G-protein coupled calcitonin receptor (Homo sapiens, UniProt P30988); test: Multiplexing of cAMP sensor with DAG sensor, calcitonin response curves; format: cell-based
T1 sequence (P30988 25-474): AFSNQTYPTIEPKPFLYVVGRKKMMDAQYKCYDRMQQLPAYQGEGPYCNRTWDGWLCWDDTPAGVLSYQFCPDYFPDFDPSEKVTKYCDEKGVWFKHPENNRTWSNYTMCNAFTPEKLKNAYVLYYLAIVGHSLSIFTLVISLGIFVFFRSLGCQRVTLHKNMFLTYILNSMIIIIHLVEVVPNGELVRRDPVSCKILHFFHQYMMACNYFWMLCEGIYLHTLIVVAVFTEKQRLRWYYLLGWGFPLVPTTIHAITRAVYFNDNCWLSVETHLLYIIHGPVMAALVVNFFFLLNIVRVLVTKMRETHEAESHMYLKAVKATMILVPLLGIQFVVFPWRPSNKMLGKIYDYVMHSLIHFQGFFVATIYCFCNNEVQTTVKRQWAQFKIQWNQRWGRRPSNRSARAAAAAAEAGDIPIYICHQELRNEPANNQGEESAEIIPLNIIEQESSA
Excerpt: FIG. 6 Multiplexing of a cAMP biosensor based on a single fluorescent protein with a second biosensor of a different color. The G-protein coupled calcitonin receptor was stimulated with different amounts of calcitonin (shown on the X axis) to produce response curves for a red cAMP and a green DAG sensor. The Y axis on the right indicates cAMP response. The Y axis on the left indicates DAG response.
The ability of cAMP sensor proteins of the present invention to be multiplexed with other fluorescence based sensors was tested. Briefly, cells were co-transfected with expression vector expressing a cAMP sensor protein of the present invention comprising a green fluorescent protein, and a DAG biosensor comprising a red fluorescent protein. The cells were cultured, treated with isoptroterenol and the resulting fluorescence measured as described in Example 1A. The results of this study are show in FIG. 6.

[2] = HEK 293 cells, beta adrenergic receptor co-expressed

| Substance | Relative Change in Fluorescence (cAMP) [%] | dF/F (cAMP; [2]) | G-protein pathways stimulated (cAMP sensor / DAG sensor) ([1]; higher concentrations) | G-protein pathways stimulated (cAMP sensor / DAG sensor) ([1]; low concentrations) | dF/F (cAMP; only cell of the column printed with %) [%] |
| --- | --- | --- | --- | --- | --- |
| EcpG18: prototype cAMP sensor, cpEGFP in Epac2 at A486; SEQID 32 in Table 1, SEQ ID NO: 33 in Table 3 | 12 | 12 |  |  |  |
| EPAC2gfpRAP1B: cpEGFP tethered between Epac2 and Rap1B; SEQID 27 in Table 1, SEQ ID NO: 28 in Table 3 | 26 |  |  |  |  |
| calcitonin |  |  | two different G-protein pathways have been activated | can stimulate just one G-protein pathway |  |
| EcpG24: prototype cAMP sensor, cpEGFP in Epac2 at A520; SEQID 33 in Table 1, SEQ ID NO: 34 in Table 3 | −11 | −11 |  |  |  |
| EcpG9: prototype cAMP sensor, cpEGFP in Epac2 at L457; SEQID 30 in Table 1, SEQ ID NO: 31 in Table 3 | 13 | 13 |  |  |  |
| EcpG23: prototype cAMP sensor, cpEGFP in Epac2 at L518; SEQID 29 in Table 1, SEQ ID NO: 30 in Table 3 | −16 | −16 |  |  |  |
| EcpG22: prototype cAMP sensor, cpEGFP in Epac2 at V341; SEQID 31 in Table 1, SEQ ID NO: 32 in Table 3 | −14 |  |  |  | −14 |
| EcpG12: prototype cAMP sensor, cpEGFP in Epac2 at V460; SEQID 11 in Table 1, SEQ ID NO: 12 in Table 3 | −36 | −36 |  |  |  |
| EcpG10: prototype cAMP sensor, cpEGFP in Epac2 at R458; SEQID 25 in Table 1, SEQ ID NO: 26 in Table 3 | −30 | −30 |  |  |  |
| EcpG15: prototype cAMP sensor, cpEGFP in Epac2 at N463; SEQID 17 in Table 1, SEQ ID NO: 18 in Table 3 | 34 | 34 |  |  |  |
| EcpG13: prototype cAMP sensor, cpEGFP in Epac2 at E461; SEQID 28 in Table 1, SEQ ID NO: 29 in Table 3 | −22 | −22 |  |  |  |

From patent publication US11366114B2, “Genetically encoded fluorescent sensors for detecting ligand bias and intracellular signaling through cAMP pathways” (MONTANA MOLECULAR LLC, priority 2013, dated 2022)
